Experimental findings from US5849777A, “Cell differentiation induction with mevalonate and mevalonolactone derivatives” (University of New Mexico, priority 1995, dated 1998) are described below.

Structures are written as SMILES. pIC50: −log10 of the molar value. Read-outs that look alike come from different tables or passages of the source.

Test [1] deals with Human peripheral blood leukocytes. As to the kind of experiment: IgG production by human peripheral blood leukocytes (HPBL) in vitro. It counts as cell-based. As to conditions: for Inhibitory Concentration (concentration inhibiting nonspecific IgG production below normal production): HPBL, additional 90 h culture; for immune enhancement (in words): Examples II and Table I. As for the experimental part: Human peripheral blood leukocytes were cultured in a standard tissue culture medium. Aliquots of these cultured cells (1,000,000 cells/ml medium) were cultured for 6 hours, and the specified amount of Formula II compound was added; the cells were then cultured for an additional 90 hours. Sheep red blood cells (SRBC) conditioned with class-specific (IgG) goat anti-human antiserum (1:400) for 2 hours; then guinea pig complement (2%) for 2 hours were conjugated to Protein A as described in detail in Radioimaging and Radioimmunotherapy, Eds. S. W. Burchiel and B. A. Rhodes, Elsevier Science Publishing; New York, 1983, pp. 125-127, incorporated herein by reference.
1. Concentration inhibiting nonspecific IgG production below normal production.

Test [2] addresses T1, rat liver HMG-COA reductase (Rattus norvegicus, UniProt P51639).
T1 construct: rat liver HMG-COA reductase activity; from tissue; host or cells: rat liver
T1 sequence (P51639 1-887): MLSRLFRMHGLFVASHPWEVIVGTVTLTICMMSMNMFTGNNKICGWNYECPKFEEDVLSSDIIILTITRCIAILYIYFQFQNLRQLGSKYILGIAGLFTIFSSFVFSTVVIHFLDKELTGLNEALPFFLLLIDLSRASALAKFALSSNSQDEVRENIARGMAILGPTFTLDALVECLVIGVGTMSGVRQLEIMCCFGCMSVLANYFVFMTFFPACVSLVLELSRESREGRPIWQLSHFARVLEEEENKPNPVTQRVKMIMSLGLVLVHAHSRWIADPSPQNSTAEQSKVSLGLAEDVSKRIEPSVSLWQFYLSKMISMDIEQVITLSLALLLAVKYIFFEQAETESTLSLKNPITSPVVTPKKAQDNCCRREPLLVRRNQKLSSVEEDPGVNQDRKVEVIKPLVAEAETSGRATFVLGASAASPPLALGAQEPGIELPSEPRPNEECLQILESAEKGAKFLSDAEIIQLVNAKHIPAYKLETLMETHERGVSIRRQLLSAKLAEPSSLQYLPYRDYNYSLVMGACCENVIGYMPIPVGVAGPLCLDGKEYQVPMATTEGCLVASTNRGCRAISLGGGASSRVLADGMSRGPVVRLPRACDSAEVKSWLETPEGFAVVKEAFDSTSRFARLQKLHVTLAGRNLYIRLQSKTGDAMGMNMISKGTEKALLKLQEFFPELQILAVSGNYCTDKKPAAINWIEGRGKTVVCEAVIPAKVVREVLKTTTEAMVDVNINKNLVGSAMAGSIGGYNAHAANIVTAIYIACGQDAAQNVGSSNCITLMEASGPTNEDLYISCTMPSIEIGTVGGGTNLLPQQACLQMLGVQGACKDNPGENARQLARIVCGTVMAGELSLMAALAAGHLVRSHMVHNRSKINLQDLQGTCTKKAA
The experiment in a line: inhibition of rat liver HMG-CoA reductase activity. Format: biochemical. The source says:
While a number of the compounds of the Formula I are known HMG-CoA reductase inhibitors, there is no apparent correlation between HMG-CoA reductase inhibitory activity and promotion of differentiation activity according to the invention. […] Accordingly, useful guidelines for selecting compounds having optimal differentiation-promoting activity according to the invention broadly comprise selecting compounds of the Formula I having the specified stereochemical configuration and an in vitro immunological activity as set forth in the in vitro assay of Example II, of at least about 3-fold.

Test [3] relates to Canine glioma cells. The experiment in a line: effect on tumor cell generation time, canine glioma. Format: cell-based. Conditions: 10 nM. On the procedure: The cells were harvested every 72 hours after the controls had reached 85% confluency. Generation time (Tg) was determined as the number of hours required for the cell population to double.
Mean of triplicate determinations. Canine glioma cells were grown under conditions to promote exponential growth characteristics; 2×10^5cells in a T-25 flask. The cells were harvested every 72 hours after the controls had reached approximately 85% confluency. The drug was added at the initiation of culture in DMSO, the control cultures had just DMSO. The drug concentration was adjusted with DMSO so that the final concentration of DMSO was always 0.5%.

For test [4], the system named is Canine glioma cells. As to the kind of experiment: inhibition of thymidine incorporation (I50%). It counts as cell-based. As to conditions: Canis lupus familiaris, Glioma cell. As for the experimental part: (§1) Cytotoxicity was determined as a function of simple survival (T50 %), adherence (ADH50 %) and thymidine incorporation (I50%) of the cells.
Estimates of the I50% of the various drugs tested on thymidine incorporation of canine glioma cells in culture.

The subject of test [5] is Canine glioma cells. The experiment in a line: inhibition of adherence (ADH50%). It counts as cell-based. As to conditions: Canis lupus familiaris, Glioma cell. As for the experimental part:
as §1
(§2) Estimates of the 50% inhibitory concentrations of the various drugs tested on simple survival (T50%) and adherence (ADH50%) for canine glioma cells.

For test [6], the system named is human colon carcinoma cell line (LS-174). As to the kind of experiment: effect on tumor cell generation time, human colon carcinoma. It counts as cell-based. On the procedure:
The procedure of Example VA, above, was repeated except a human colon carcinoma cell line (LS-174) was used instead of the canine glioma cell line.
Mean of triplicate determinations. LS-174 cells (human colon carcinoma) were grown under conditions to promote exponential growth characteristics; 2×10^5 cells in a T-25 flask. The cells were harvested every 72 hours after the controls had reached approximately 85% confluency. The drug was added at the initiation of culture in DMSO, the control cultures had just DMSO. The drug concentration was adjusted with DMSO so that the final concentration of DMSO was always 0.5%.

For test [7], the system named is Canine glioma cells. The experiment in a line: cytotoxicity as simple survival (T50%). Format: cell-based. As to conditions: Canis lupus familiaris, Glioma cell, read-out: T 50%. As for the experimental part:
as §1, §2

The test system of test [8] is CG (canine glioma) cells. The experiment in a line: tumor-specific antibody production in vivo (anti-CG IgG titer). Also on record: species or system dog. From the text:
Titer of CG-specific antibody was compared to control [no administration of compound IIa' and no implantation of CG (canine glioma) cells]. […] This increase in titer continued with time until tumor regression was noted by independent measurement (NMR evaluation, below).
The results are particularly striking as the experimental tumor (brain glioma) is generally considered to enjoy a privileged position beyond the blood/brain barrier, substantially beyond the reach of the humoral immune system. Experimental protocols are described in detail below (FIGS. 7-9, Example VII).

For test [9], the system named is CG tumor. As to the kind of experiment: chromium-release cell-mediated lympholysis (CML) vs CG tumor. Format: in vivo, dog. From the text: Cellular immune response reflected the results reported in III, 1 above. […] This also is in the absence of CG antigen exposure. […] Thus both cellular and humoral immunity appear to be modulatable in the absence of antigen by the compounds of the instant invention.

Where [10] appears, read: read-out: IC50 (concentration for 50% inhibition of rat liver HMG-COA reductase activity), Table I.

Take `CC(C)c1nc(-c2ccccc2)n(-c2ccc(F)cc2)c1/C=C/[C@H](O)C[C@@H](O)CC(=O)O` (relative stereo) [Compound IIe']: the “Stimulation of IgG Production” value in test [1] (1&100 nM) is on record as 1990%. The activation at 0.0001 µM in [1] (Homo sapiens, Leukocyte, 90 h, 100 pM, read-out: Stimulation of IgG Production) was < 350%. Besides, the pIC50 in [2] (Example IV, read-out: IC50 (HMG-CoA reductase)) is 8.52; in test [2] (setting [10]) it was 8.52; in test [4] (24 h exposure, read-out: I50%) it was 7.30; in test [4] (48 h exposure, read-out: I50%) it was 7.12; in test [4] (72 h exposure, read-out: I50%), 7.10; in test [4] (96 h exposure, read-out: I50%), 7.30. The pIC50 is 7.10 to 7.30 in test [4] (Table V, all exposure times, read-out: I50% (thymidine incorporation into DNA)); 7.12 in test [5] (24 h exposure); 7.15 in test [5] (72 h exposure); 7.12 in [5] (96 h exposure); 6.12 in test [7] (24 h exposure); 6.10 in test [7] (72 h exposure). In addition, the pIC50 in [7] (96 h exposure) was 6.05. For the same molecule, the “contact inhibition as the cells approached confluency” value in test [3] is listed as “showed evidence of contact inhibition”. Further, the “% CHANGE (Tg)” value amounted to 129% in test [3] (72 × 2 h); 180% in [3] (72 × 3 h); 155% in test [3] (72 × 4 h); 136% in test [3] (72 h); 400% in test [6] (10 nM, 72 × 2 h); 416% in test [6] (10 nM, 72 × 3 h). The “% CHANGE (Tg)” value turned out to be 414% in [6] (10 nM, 72 × 4 h) and 320% in test [6] (10 nM, 72 h). Also, the Tg in [3] (72 × 2 h) is given as 24.0 h; in [3] (72 × 3 h (three passages), control 18.6 h), 33.4 h; in [3] (72 × 4 h) it was 28.9 h; in [3] (72 h), 25.3 h; in test [6] (10 nM, 72 × 2 h) it was 106.2 h; in test [6] (10 nM, 72 × 3 h (three passages), control 26.5 h), 110.3 h. The Tg in test [6] (10 nM, 72 × 4 h) came out at 109.6 h; in test [6] (10 nM, 72 h) it was 84.9 h. Further, the “slowing of the growth rate” value in [3] (three passages) was 1.8 fold. For the same molecule, in test [6] (10 nM, three passages), the “prolongation of generation time” value was 4.16 fold. Besides, in test [6] (drug withdrawn, two passages), the “generation time after drug withdrawn” value was “returned to control levels”.

Regarding `CC(C)c1nc(-c2ccccc2)n(-c2ccc(F)cc2)c1/C=C/[C@H](O)C[C@H](O)CC(=O)O` [IIa], the “Inhibitory Concentration (concentration inhibiting nonspecific IgG production below normal production)” value in test [1] is listed as “none found”. The pIC50 in test [2] (Table I) is 5.50. Also, in [8] (at tumor regression, within a few days), the CG-specific antibody entry was “reverted to baseline control levels”. Also, in test [8] (following implantation of the CG tumor cells), the “CG-specific antibody (IgG) production” value is recorded as “increased significantly”. Moreover, the “titers of antibody over the control antibody titer” value in test [8] (in the absence of antigen) is on record as “titers of antibody increased over the control antibody titer significantly”. Further, the CML reactivity result in test [9] (after 5 weeks, tumor totally regressed) was “returned to baseline”; in test [9] (after a few days of exposure to the CG tumor implant), “large increase in the CML reactivity”. Also, the “CG-specific CML” value in test [9] (after 14 days of administration, I.P., M, W, F) was “only baseline levels of CG-specific CML were present”. Also, the CML result in test [9] (after an additional 2 months, absence of CG antigen exposure) is on record as “significant increase in CML”.

With `CC(C)c1nc(-c2ccccc2)n(-c2ccc(F)cc2)c1/C=C/[C@@H](O)C[C@H](O)CC(=O)O` [IIb], the “Inhibitory Concentration (concentration inhibiting nonspecific IgG production below normal production)” value in test [1] is recorded as “none found”. Also, in [2] (setting [10]), the pIC50 was 5.87.

Consider `CC(C)c1nc(-c2ccccc2)n(-c2ccc(F)cc2)c1/C=C/[C@@H](O)C[C@@H](O)CC(=O)O` [IId, reference compound], for which the activation at 0.1 µM in [1] (Homo sapiens, Leukocyte, 90 h, 100 nM, read-out: Stimulation of IgG Production) is 320%.

With `CC[C@H](C)C(=O)O[C@H]1CCC=C2C=C[C@H](C)[C@H](CC[C@@H]3C[C@@H](O)CC(=O)O3)[C@H]21` [compactin, reference compound], in test [1], the “immune enhancement (in words)” value was “no immune enhancement”. Also, the pIC50 was 7.00 in test [4] (24 h exposure, read-out: I50%); 7.12 in test [4] (48 h exposure, read-out: I50%); 7.52 in test [4] (72 h exposure, read-out: I50%); 7.30 in test [4] (96 h exposure, read-out: I50%); 7.30 in test [5] (24 h exposure); 7.12 in [5] (72 h exposure). The pIC50 in [5] (96 h exposure) is 7.12; in [7] (24 h exposure) it was 6.30; in test [7] (72 h exposure), 6.70; in [7] (96 h exposure), 6.46.

As to `CC[C@H](C)C(=O)O[C@H]1C[C@@H](C)C=C2C=C[C@H](C)[C@H](CC[C@@H]3C[C@@H](O)CC(=O)O3)[C@H]21` [lovastatin, reference compound], the “immune enhancement (in words)” value in test [1] is listed as “no immune enhancement”.
